Reference: patent US20120225062A1 (priority 2011, published 2012)

Key:
[1] = system: KMS11 (human myeloma cell line); assay: Cell Proliferation Assay (CellTiter-Glo, 3 days); format: cell-based; conditions: KMS-11, 72 h, KMS11-luc cells
Method in brief: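 KMS11 myeloma cells, 2000 per well in IMDM with 10% FBS, exposed to compound for 3 days at 37° C. Viability read by CellTiter-Glo luminescence; EC50 derived.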

Pim 1 = Pim 1 (Homo sapiens, UniProt P11309); assay: Pim 1 AlphaScreen assay (high ATP)
Sequence of Pim 1 (P11309 whole entry): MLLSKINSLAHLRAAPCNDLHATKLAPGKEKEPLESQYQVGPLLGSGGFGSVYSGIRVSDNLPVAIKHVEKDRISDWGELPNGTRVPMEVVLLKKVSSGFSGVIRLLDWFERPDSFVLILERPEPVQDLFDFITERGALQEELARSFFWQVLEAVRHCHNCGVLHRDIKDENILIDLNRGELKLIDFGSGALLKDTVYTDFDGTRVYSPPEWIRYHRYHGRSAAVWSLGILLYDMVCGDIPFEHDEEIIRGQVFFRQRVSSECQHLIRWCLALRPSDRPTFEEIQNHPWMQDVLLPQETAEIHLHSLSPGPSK

Pim 2 = Pim 2 (Homo sapiens, UniProt Q9P1W9); assay: Pim 2 AlphaScreen assay (high ATP)
Sequence of Pim 2 (Q9P1W9 whole entry): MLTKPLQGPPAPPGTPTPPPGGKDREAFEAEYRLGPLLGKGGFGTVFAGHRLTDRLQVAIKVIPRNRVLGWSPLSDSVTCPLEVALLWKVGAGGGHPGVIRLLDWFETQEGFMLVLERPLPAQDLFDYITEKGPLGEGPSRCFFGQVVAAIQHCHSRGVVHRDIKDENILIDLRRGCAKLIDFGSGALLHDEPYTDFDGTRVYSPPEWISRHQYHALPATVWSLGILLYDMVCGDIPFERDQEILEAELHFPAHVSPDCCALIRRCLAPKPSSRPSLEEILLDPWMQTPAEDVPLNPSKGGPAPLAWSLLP

Pim 3 = Pim 3 (Homo sapiens, UniProt Q86V86); assay: Pim 3 AlphaScreen assay (high ATP)

| SMILES | EC50 [1] | IC50 (Pim 1) | IC50 (Pim 2) | IC50 (Pim 3) |
| --- | --- | --- | --- | --- |
| C[C@H]1CN(c2ccncc2NC(=O)c2ccc(F)c(-c3c(F)cc(C4(O)CCC4)cc3F)n2)C[C@@H](N)[C@@H]1O [Example 76, N-(4-((3R,4R,5S)-3-amino-4-hydroxy-5-methylpiperidin-1-yl)pyridin-3-yl)-6-(2,6-difluoro-4-(1-hydroxycyclobutyl)phenyl)-5-fluoropicolinamide] | 9 nM | 0.01 nM | 0.71 nM | 0.22 nM |
| COCCCOc1cc(F)c(-c2nc(C(=O)Nc3cnccc3[C@@H]3C[C@H](C)C[C@H](N)C3)ccc2F)c(F)c1 [Example 176, N-(4-((1R,3S,5S)-3-amino-5-methylcyclohexyl)pyridin-3-yl)-6-(2,6-difluoro-4-(3-methoxypropoxy)phenyl)-5-fluoropicolinamide] | 182 nM | 0.01 nM | 1.62 nM | 0.48 nM |
| C[C@H]1C[C@@H](c2ccncc2NC(=O)c2ccc(F)c(-c3c(F)cc(OC4CCOCC4)cc3F)n2)C[C@@H](N)[C@@H]1O [Example 59] | 28 nM | 0.02 nM | 2.77 nM | 0.45 nM |
| C[C@@H]1C[C@H](N)C[C@H](c2ccncc2NC(=O)c2ccc(F)c(-c3c(F)cc([S@+](C)[O-])cc3F)n2)C1 [Example 227, N-(4-((1R,3S,5S)-3-amino-5-methylcyclohexyl)pyridin-3-yl)-6-(2,6-difluoro-4-((S)-methylsulfinyl)phenyl)-5-fluoropicolinamide] | 221 nM | 0.16 nM | 17.3 nM | 23.9 nM |
| COC(C)(C)COc1cc(F)c(-c2nc(C(=O)Nc3cnccc3[C@@H]3C[C@H](C)C[C@H](N)C3)ccc2F)c(F)c1 [Example 46, N-(4-((1R,3S,5S)-3-amino-5-methylcyclohexyl)pyridin-3-yl)-6-(2,6-difluoro-4-(2-methoxy-2-methylpropoxy)phenyl)-5-fluoropicolinamide] | 84 nM | 0.02 nM | 2.77 nM | 0.85 nM |
| C[C@@H]1C[C@H](N)C[C@H](c2ccncc2NC(=O)c2ccc(F)c(-c3c(F)ccc(OC[C@H](O)CO)c3F)n2)C1 [Example 9, N-(4-((1R,3S,5S)-3-amino-5-methylcyclohexyl)pyridin-3-yl)-6-(3-((R)-2,3-dihydroxypropoxy)-2,6-difluorophenyl)-5-fluoropicolinamide] | 72 nM | 0.04 nM | 3.97 nM | 1.09 nM |
| CSc1cc(F)c(-c2nc(C(=O)Nc3cnccc3N3C[C@@H](N)[C@H](O)[C@@H](C)C3)ccc2F)c(F)c1 [Example 23, N-(4-((3R,4R,5S)-3-amino-4-hydroxy-5-methylpiperidin-1-yl)pyridin-3-yl)-6-(2,6-difluoro-4-(methylthio)phenyl)-5-fluoropicolinamide] | 29 nM | 0.02 nM | 0.96 nM | 0.32 nM |
| CC(C)Oc1cc(F)c(-c2nc(C(=O)Nc3cnccc3[C@H]3C[C@@H](N)[C@H](O)[C@@H](C)C3)ccc2F)c(F)c1 [Example 62, N-(4-((1R,3R,4R,5S)-3-amino-4-hydroxy-5-methylcyclohexyl)pyridin-3-yl)-6-(2,6-difluoro-4-isopropoxyphenyl)-5-fluoropicolinamide] | 52 nM | 0.01 nM | 1.03 nM | 0.35 nM |
| COCCOc1cc(F)c(-c2nc(C(=O)Nc3cnccc3N3C[C@@H](N)[C@H](O)[C@@H](C)C3)ccc2F)c(F)c1 [Example 22, N-(4-((3R,4R,5S)-3-amino-4-hydroxy-5-methylpiperidin-1-yl)pyridin-3-yl)-6-(2,6-difluoro-4-(2-methoxyethoxy)phenyl)-5-fluoropicolinamide] | 10 nM | 0.03 nM | 1.5 nM | 0.45 nM |
